Test results: US20060160197A1 (priority 2004, published 2006)

Tests used:
Type in all cases: physicochemical
[1] = Example 23 back extraction with aqueous glycolic acid from loaded solvent (70% trialkylamine/30% toluene), 140° C.; details: 70% C8-C10 trialkylamine/30% toluene, 40 psig nitrogen
Method: (§1) A variety of analytical methods can be employed to analyze the reactants and products produced using the present methods include HPLC, GC, ion selective electrodes, MS, NMR, etc. HPLC was used to measure glycolic acid and various related products. Briefly, samples are diluted with water (as needed to be within HPLC detection range) and mixed 1:1 with 0.2 M n-propanol in water (HPLC internal standard). HPLC Analytical Method: (BioRad HPX 87H ion exclusion column (BioRad, Hercules, Calif.), 300 mm×7.8 mm; 0.01 N H2SO4 mobile phase; 1.0 mL/min flow at 50° C.; 10 μL injection volume; RI detector and UV 210 nm, 20 min analysis time). HPLC Equipment: (Waters 2695 ‘Alliance’ Separations Module, 2410 Refractive Index Detector, 2487 Dual λ Absorbance Detector and Empower Pro Software (Waters Corp, Milford, Mass.).
Back Extraction from a Loaded Solvent of Approximately 70% C8-C10 Trialkylamine in Combination with 30% Toluene
(§2) The vessel was then closed, and the headspace purged with nitrogen. The resulting mixture was stirred for 60 minutes at 140° C. under 40 psig (˜275.8 kPa) nitrogen. The stirring was stopped and the two phases allowed to separate at 140° C., then the organic phase was sampled under pressure through the top dip tube into a Hoke cylinder, and aqueous phases was sampled under pressure through the bottom dip tube into another Hoke cylinder.

[2] = Example 9 reactive solvent extraction, 90% Alamine 336/10% 1-octanol, 75° C.; details: pH 2 to 3
Method: as §1
Solvent Extraction Using Approximately 90% C8-C10 Trialkylamine in Combination with 10% 1-Octanol at 75° C.
(§3) Into a 4-mL glass reactor equipped with magnetic stir bar was placed 1 mL of a mixed solvent containing 90% (volume/volume) Alamine® 336 (Cognis), 10% (volume/volume) 1-octanol. The pH of an aqueous solution of ammonium glycolate (5 wt % to 40 wt %) was adjusted to pH 2 to 3 with concentrated sulfuric acid, then 1 mL of the resulting aqueous solution was added to the reactor. The resulting mixture was stirred for 30 minutes at 75° C.

[3] = Example 7 reactive solvent extraction, 50% Alamine 336/10% MIBK/40% kerosene, 75° C.; details: pH 2 to 3
Method: as §1
Solvent Extraction Using Approximately 50% C8-C10 Trialkylamine in Combination with 10% Methyl Isobutyl Ketone and 40% Kerosene at 75° C.
as §3, with “50%” for “90%”, “methyl isobutyl ketone (MIBK) and 40% (volume/volume) kerosene.” for “1-octanol.”

[4] = Example 12 reactive solvent extraction, 90% Alamine 336/10% toluene, 25° C.; details: pH 2 to 3
Method: as §1
Solvent Extraction Using Approximately 90% C8-C10 Trialkylamine in Combination with 10% Toluene at 25° C.
as §3, with “toluene.” for “1-octanol.”, “25°” for “75°”

[5] = Example 22 back extraction using water from loaded solvent (70% trialkylamine/30% toluene), 140° C.; details: back extraction into deionized water, 70% C8-C10 trialkylamine/30% toluene, 40 psig nitrogen
Method: as §1
Back Extraction Using Water from a Loaded Solvent of Approximately 70% C8-C10 Trialkylamine in Combination with 30% Toluene
as §2, with “Into a 85-mL pressure reaction glass tube (pressure reaction vessel, from Andrews Glass Co.) equipped with magnetic stir bar and double dip tubes was placed 10 mL deionized water and 10 mL of the loaded solvent (see Example 16). The vessel” for “The vessel”

[6] = Example 11 reactive solvent extraction, 70% Alamine 336/30% 1-octanol, 75° C.; details: pH 2 to 3
Method: as §1
Solvent Extraction Using Approximately 70% C8-C10 Trialkylamine in Combination with 30% 1-Octanol at 75° C.
as §3, with “70%” for “90%”, “30%” for “10%”

[7] = initial 3.6 wt % glycolic acid in aqueous phase
[8] = initial 8.5 wt % glycolic acid in aqueous phase
[9] = initial 12.1 wt % glycolic acid in aqueous phase
[10] = initial 16.1 wt % glycolic acid in aqueous phase
[11] = initial 20.6 wt % glycolic acid in aqueous phase
[12] = initial 25.1 wt % glycolic acid in aqueous phase
[13] = initial 29.1 wt % glycolic acid in aqueous phase
[14] = initial 32.8 wt % glycolic acid in aqueous phase

## O=C(O)CO [glycolic acid]
[1]; initial 20.0 wt % glycolic acid in aqueous phase, 14.2 wt % in loaded solvent
  Partition coefficient (wt % org./wt % aq.): 0.44
[1]; initial 40.0 wt % glycolic acid in aqueous phase, 15.7 wt % in loaded solvent
  Partition coefficient (wt % org./wt % aq.): 0.45
[2]; [7]
  Partition coefficient (wt % org./wt % aq.): 0.54
[2]; [8]
  Partition coefficient (wt % org./wt % aq.): 0.56
[2]; [9]
  Partition coefficient (wt % org./wt % aq.): 0.62
[2]; [10]
  Partition coefficient (wt % org./wt % aq.): 0.63
[2]; [11]
  Partition coefficient (wt % org./wt % aq.): 0.73
[2]; [12]
  Partition coefficient (wt % org./wt % aq.): 0.75
[2]; [13]
  Partition coefficient (wt % org./wt % aq.): 0.73
[2]; [14]
  Partition coefficient (wt % org./wt % aq.): 0.70
[3]; [7]
  Partition coefficient (wt % org./wt % aq.): 0.38
[3]; [8]
  Partition coefficient (wt % org./wt % aq.): 0.32
[3]; [9]
  Partition coefficient (wt % org./wt % aq.): 0.35
[3]; [10]
  Partition coefficient (wt % org./wt % aq.): 0.28
[3]; [11]
  Partition coefficient (wt % org./wt % aq.): 0.33
[3]; [12]
  Partition coefficient (wt % org./wt % aq.): 0.35
[3]; [13]
  Partition coefficient (wt % org./wt % aq.): 0.35
[3]; [14]
  Partition coefficient (wt % org./wt % aq.): 0.35
[4]; [7]
  Partition coefficient (wt % org./wt % aq.): 1.22
[4]; [8]
  Partition coefficient (wt % org./wt % aq.): 1.41
[4]; [9]
  Partition coefficient (wt % org./wt % aq.): 1.46
[4]; [10]
  Partition coefficient (wt % org./wt % aq.): 1.23
[4]; [11]
  Partition coefficient (wt % org./wt % aq.): 1.20
[4]; [12]
  Partition coefficient (wt % org./wt % aq.): 1.26
[4]; [13]
  Partition coefficient (wt % org./wt % aq.): 1.00
[4]; [14]
  Partition coefficient (wt % org./wt % aq.): 0.86
[5]; initial 3.7 wt % glycolic acid in loaded solvent
  Partition coefficient (wt % org./wt % aq.): 0.26
[5]; initial 10.7 wt % glycolic acid in loaded solvent
  Partition coefficient (wt % org./wt % aq.): 0.30
[5]; initial 14.2 wt % glycolic acid in loaded solvent
  Partition coefficient (wt % org./wt % aq.): 0.38
[5]; initial 15.7 wt % glycolic acid in loaded solvent
  Partition coefficient (wt % org./wt % aq.): 0.28
[6]; [7]
  Partition coefficient (wt % org./wt % aq.): 0.69
[6]; [8]
  Partition coefficient (wt % org./wt % aq.): 0.74
[6]; [9]
  Partition coefficient (wt % org./wt % aq.): 0.64
[6]; [10]
  Partition coefficient (wt % org./wt % aq.): 0.68
[6]; [11]
  Partition coefficient (wt % org./wt % aq.): 0.62
[6]; [12]
  Partition coefficient (wt % org./wt % aq.): 0.61
[6]; [13]
  Partition coefficient (wt % org./wt % aq.): 0.50
[6]; [14]
  Partition coefficient (wt % org./wt % aq.): 0.52
